Tests used:
GPR142 = experiment: Action on adenylate cyclase activity (cAMP) in GPR142-overexpressing HEK293T cells (Examples 8 and 9); assay type: cell-based, human; conditions: forskolin 10 μM, IBMX 1 mM
Procedure: In this example, the cAMP production-suppressing effect of Compound 1 was confirmed.
1) 6×10^4 cells/well of HEK293T cells were plated on a collagen-coated 24-well plate, a culture medium containing DMEM medium (Invitrogen) supplemented with penicillin (50 μg/ml), streptomycin (50 μg/ml), and fetal bovine serum (FBS) (10%, v/v) was added to the plate, and the cells were cultured under the conditions of 37° C. and 5% CO2.
2) A GPR142PCXN mammalian expression vector was prepared in the same manner as in the step 2) of Example 7.
3) After culture for 1 day under the conditions of the step 1), HEK293T cells were transfected with 0.2 μg of the GPR142PCXN mammalian expression vector per well by using a transfection reagent Fugene™ HD (Promega Corporation) according to the manufacturer's protocol. As a control, cells transfected only with the PCXN mammalian expression vector were used.
4) After culture for 1 day after the transfection described above, 1 mM of isobutylmethylxanthine (IBMX), which was a cAMP phosphodiesterase inhibitory substance, was added to HEK293T cells, and thereafter, the cells were cultured for 10 minutes at 37° C.
5) Next, the medium was exchanged for the culture medium to which 0.1 nM to 1000 nM of a DMSO solution of Compound 1, 10 μM of forskolin, and 1 mM of IBMX per well were added, and the cells were further cultured for 20 minutes at 37° C. As a control, a solvent (vehicle), 10 μM of forskolin, and 1 mM of IBMX were added.
6) The cells cultured in the step 5) were lysed by 0.1 mol/L of HCl. The cAMP concentration within the cells was measured by using Cyclic AMP EIA Kit (Cayman Chemical Company) according to the manufacturer's protocol. The result is shown as the ratio (%) of the cAMP concentration in the cells treated with Compound 1 with respect to the cAMP concentration in the control example defined as 100%.
In this example, the cAMP production-suppressing effect of Compound 2 or 3 was confirmed.
HEK293T cells were cultured in the same manner as in the steps 1) to 4) of Example 8. Next, the cells were cultured in the same manner as in the step 5) of Example 8 except that, in the step 5) of Example 8, each of a methanol solution of Compound 3, a DMSO solution of Compound 2, and a DMSO solution of Comparative Compound 2 was used at 1,000 nM per well instead of Compound 1. The cAMP concentration in the cultured cells was measured in the same manner as in the step 6) of Example 8.

FLG mRNA = FLG mRNA in three-dimensional cultured skin, real-time PCR (Example 10); assay type: cell-based; conditions: human skin three-dimensional model, 1 μM, recovered 7 days after start of culture
Procedure: In this example, the expression-increasing effect of Compound 1 on FLG mRNA was examined by using three-dimensional cultured skin. FLG mRNA expression was measured by a real-time PCR method.
1) A commercially available human skin three-dimensional model (TEST SKIN™ LSE-013, TOYOBO CO., LTD.) was cultured by using TEST SKIN LSE ASSAY MEDIUM (TOYOBO CO., LTD.) according to the manufacturer's protocol.
2) After culture for 2 days, the following medicament A) or C) was dissolved in DMSO, and was added to the medium at 1 μM to treat the cells with the medicament. • A) Compound 1 (N-quinolylbenzamide derivative) • C) Comparative Compound 2 (scriptaid)
As a control example, a solvent only (vehicle) was added.
3) After further culture for 2 days (4 days after the start of culture), the medium was exchanged for the medium to which the medicament was added. 3 days after further culture (7 days after the start of culture), the three-dimensional cultured skin was recovered, frozen with liquid nitrogen, and then stored at −30° C.
4) Total RNA was extracted from each of the cells treated with the medicaments by using an RNA extraction reagent (RNeasy™, QIAGEN N.V.) according to the manufacturer's protocol. cDNA was prepared from the total RNA by using a reverse transcriptase reagent (Prime Script™, Takara) according to the manufacturer's protocol. […]

CC[C@H](C)[C@H]1O[C@]2(CC[C@@H]1C)C[C@@H]1C[C@@H](C/C=C(\C)[C@@H](O[C@H]3C[C@H](OC)[C@@H](O[C@H]4C[C@H](OC)[C@@H](O)[C@H](C)O4)[C@H](C)O3)[C@@H](C)/C=C/C=C3\CO[C@@H]4[C@H](O)C(C)=C[C@@H](C(=O)O1)[C@]34O)O2 [Compound 2, Ivermectin, reference compound] was tested, and the “decrease of cAMP production” value (GPR142; GPR142-overexpressing HEK293T cells, 1,000 nM, 20 minutes) was “about 20%”.
CCc1ccc(OCc2ccccc2C(=O)Nc2ccc3nc(C)cc(N)c3c2)cc1.Cl [Compound 1, N-(4-Amino-2-methyl-6-quinolyl)-2-[(4-ethylphenoxy)methyl]benzamide hydrochloride] was tested, and the cAMP production (GPR142; GPR142-overexpressing HEK293T cells, 0.1 nM to 1000 nM, 20 minutes) was “decreased cAMP production via GPR142 dose-dependently” and the “FLG mRNA expression (GAPDH ratio)” value (FLG mRNA) was “increased FLG mRNA expression”.
For O=C(CCCCCN1C(=O)c2cccc3cccc(c23)C1=O)NO [Comparative Compound 2, 6-(1,3-Dioxo-1H,3H-benzo[de]isoquinolin-2-yl)hexanoic acid hydroxyamide, reference compound], the “cAMP production-suppressing action, in words” value (GPR142; GPR142-overexpressing HEK293T cells, 1,000 nM) was “no cAMP production-suppressing action was observed” and the “FLG mRNA expression (GAPDH ratio)” value (FLG mRNA) was “increased FLG mRNA expression”.

Reference: patent publication US20150190416A1, “FILAGGRIN PRODUCTION PROMOTER, THERAPEUTIC AGENT FOR DISEASES ASSOCIATED WITH REDUCTION IN PRODUCTION OF FILAGGRIN, AND METHOD FOR SCREENING FOR SAID THERAPEUTIC AGENT” (KYOTO UNIVERSITY, priority 2012, published 2015)
